Experiment [1] has as its system human peripheral blood lymphocytes (PBC). Kind of experiment: Mitogenesis assay, OKT3 stimulated proliferation. Type of experiment: cell-based. The note with it: Lymphocyte, OKT3 (10^-4 dilution final), inhibition of proliferation, 3H-thymidine, read-out: OKT3.
Text: (§4) Fresh peripheral blood lymphocytes (PBLs) from LeukoPak cells or whole blood from random normal blood donors (tested HIV-negative and hepatitis negative) are isolated and separated by density centrifugation over Histopaque 1077 (Sigma Chemical Co., St. Louis, MO). […] The human allogeneic B cell lines used for activation of the fresh PBLs are EBV-transformed lymphocytes from normal healthy adult donors with two completely different HLA haplotypes. All cell lines were routinely tested for the presence of Mycoplasma contamination using the Gibco Mycotect test kit and are Mycoplasma-free. Culture medium consists of RPMI 1640 (Gibco, Grand Island, NY) containing penicillin (50 U/ml) and streptomycin (50 µg/ml), L-glutamine 2 mM, 2 mercaptoethanol (5 x 10^-5), 10% heat-inactivated FCS and 10 mM HEPES.
Experiment [2] deals with PBLs stimulated with JVM human viral-transformed B lymphoblastoid cell line. Kind of experiment: MLR bioassay, PBLs stimulated with JVM cells. As to conditions: mixed lymphocyte reaction, JVM stimulator cells, inhibition of proliferation, read-out: JVM. Format: cell-based. An excerpt: (§1) Fresh peripheral blood lymphocytes (PBLs) from LeukoPak cells or whole blood from random normal blood donors (tested HIV-negative and hepatitis negative) are isolated and separated by density centrifugation over Histopaque 1077 (Sigma Chemical Co., St. Louis, MO). The murine CTLL cytotoxic T cell line and the human Jurkat T cell line are from ATCC (CTLL-2 ATCC TIB214, JURKAT CLONE E6-1 ATCC TIBl52). The human allogeneic B cell lines used for activation of the fresh PBLs are EBV-transformed lymphocytes from normal healthy adult donors with two completely different HLA haplotypes. All cell lines were routinely tested for the presence of Mycoplasma contamination using the Gibco Mycotect test kit and are Mycoplasma-free. Culture medium consists of RPMI 1640 (Gibco, Grand Island, NY) containing penicillin (50 U/ml) and streptomycin (50 µg/ml), L-glutamine 2 mM, 2 mercaptoethanol (5 x 10^-5), 10% heat-inactivated FCS and 10 mM HEPES.
(§2) All chemical stocks were dissolved in DMSO.
(§3) Antigen activated proliferation of PBLs in a primary mixed lymphocyte reaction was assessed in the presence or absence of different concentrations of tested compounds and control drugs. 5 x 10^4 fresh PBLs were stimulated with 5 x 10^3 of Mitomycin C treated-allogeneic EBV-transformed […] cells, LB and JVM, in a final volume of 200 µl per well in 96-well round-bottomed plates (Mishell, B.B. and S.M. Shiigi, Selected Methods in Cellular Immunology W.H. Freeman and Co., San Francisco, CA (1980); Nelson, P.A. et al., Transplantation 50:286 (1990)). Cultures were pulsed on day 6, harvested 24 h later and counted as in previous section.

Experiment [3] relates to human peripheral blood lymphocytes (PBC). Kind of experiment: Mitogenesis assay, PMA plus ionomycin stimulated proliferation. Type of experiment: cell-based. As to conditions: Lymphocyte, read-out: PMA.
Text: as §4
For experiment [4], the system named is CTLL-20 murine T cell line. The experiment in a line: IL-2 microassay, IL-2 dependent CTLL proliferation. Type of experiment: cell-based. As to conditions: Mus musculus; inhibition of proliferation of cytotoxic T cells stimulated by IL-2; read-out: CTLL.
Text: as §4
Experiment [5] deals with FKBP (Homo sapiens, UniProt P62942). The experiment in a line: Inhibition of FKBP PPIase (rotamase) activity, chymotrypsin-coupled assay. Type of experiment: biochemical. As to conditions: apparent Ki. An excerpt:
The inhibition of the PPIase (rotamase) enzyme activity of the FKBP (apparent "Ki" values) can also be measured according to the methods described by either Harding, M.W. et al., Nature 341:758-760 (1989) or Siekierka, J.J. et al., Nature 341:755-757 (1989). The cis-trans isomerization of the […] peptide bond in a model substrate, N-succinyl-Ala-Ala-Pro-Phe-p-nitroanilide, is monitored spectrophotometrically in a coupled assay with chymotrypsin, which releases 4-nitroanilide from the trans form of the substrate. Fischer, G. et al., Nature 337:476-478 (1989). The inhibitory effect of the addition of different concentrations of inhibitor on the extent of the reaction is determined, and analysis of the change in first order rate constant as a function of inhibitor concentration yields an estimate of the apparent Ki value.

Experiment [6] deals with PBLs stimulated with LB human viral-transformed B lymphoblastoid cell line. Kind of experiment: MLR bioassay, PBLs stimulated with LB cells. Type of experiment: cell-based. As to conditions: mixed lymphocyte reaction, LB stimulator cells, inhibition of proliferation, read-out: LB.
Text: as §1, §2, §3

Our source for the IC50 and Ki values is patent EP0584223B1, “NOVEL IMMUNOSUPPRESSIVE COMPOUNDS” (VERTEX PHARMACEUTICALS INCORPORATED, priority 1991, dated 1992).

Chain of FKBP (P62942 whole entry): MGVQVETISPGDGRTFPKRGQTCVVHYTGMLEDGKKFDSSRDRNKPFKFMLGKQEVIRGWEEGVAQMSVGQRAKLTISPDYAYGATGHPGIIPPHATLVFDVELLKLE

Turning to `COc1cc(C(=O)C(=O)N2CCCC[C@H]2C(=O)OC(CCCc2ccccc2)c2cccc(Oc3ccccc3)c2)cc(OC)c1OC` (mixture of isomers) [Compound 4, (R and S)-1-(3-Phenoxy)phenyl-4-phenyl-1-butyl (S)-N-(3,4,5-trimethoxyphenylglyoxyl)pipecolate], the IC50 in experiment [1], in experiment [2], in experiment [3] (3 h), in experiment [4] and in experiment [6] was > 10 µM throughout. The Ki in experiment [5] stood at 0.22 µM.

In the case of `COc1cc(C(=O)C(=O)N2CCCC[C@H]2C(=O)OC(CCCc2ccccc2)CCc2cccnc2)cc(OC)c1OC` (mixture of isomers) [Compound 7, (R and S)-6-Phenyl-1-(3-pyridyl)-3-hexyl (S)-N-(3,4,5-trimethoxyphenylglyoxyl)pipecolate], the IC50 came out at 2 µM in experiment [1]; 5 µM in experiment [2]; 2 µM in experiment [3] (3 h); 2 µM in experiment [4]; 5 µM in experiment [6].

With `COc1cc(C(=O)C(=O)N2CCCC[C@H]2C(=O)OC(CCCc2ccccc2)CCCc2cccnc2)cc(OC)c1OC` (mixture of isomers) [Compound 9, (R and S)-1-Phenyl-7-(3-pyridyl)-4-heptyl (S)-N-(3,4,5-trimethoxyphenylglyoxyl)pipecolate], the IC50 in experiment [1] was 1.2 µM; in experiment [2], 6 µM; in experiment [3] (3 h), 1.8 µM; in experiment [4] it was 2.5 µM; in experiment [6] it was 6 µM.

For the compound `COc1cc(C(=O)C(=O)N2CCCC[C@H]2C(=O)OC(CCCc2c[nH]c3ccccc23)Cc2ccccc2)cc(OC)c1OC` (mixture of isomers) [Compound 11, (R and S)-5-(3-indolyl)-1-phenyl-2-pentyl (S)-N-(3,4,5-trimethoxyphenylglyoxyl)pipecolate], the IC50 in experiment [1] was 2 µM; in experiment [2], 6.5 µM; in experiment [3] (3 h) it was 2.7 µM; in experiment [4], 10 µM; in experiment [6], 3.5 µM. In addition, the Ki in experiment [5] amounted to 0.024 µM.

Consider `COc1cc(C(=O)C(=O)N2CCCC[C@H]2C(=O)OCC(CCc2ccccc2)Cc2ccccc2)cc(OC)c1OC` (mixture of isomers) [Compound 16, (R and S)-2-Benzyl-4-phenyl-1-butyl (S)-N-(3,4,5-trimethoxyphenylglyoxyl)pipecolate], for which the IC50 is 7 µM in experiment [1]; > 10 µM in experiment [2]; 5 µM in experiment [3] (3 h); 6 µM in experiment [4]; 9 µM in experiment [6]. In addition, in experiment [5], the Ki came out at 0.057 µM.

For the compound `CC(C)(C)C(=O)C(=O)N1CCCC[C@H]1C(=O)OC(CCCc1ccccc1)CCCc1ccccn1` (mixture of isomers) [Compound 21, (R and S)-1-Phenyl-7-(2-pyridyl)-4-heptyl (S)-N-(tert-butylglyoxyl)-pipecolate], the IC50 in experiment [1] worked out at 3 µM; in experiment [2] it was 7 µM; in experiment [3] (3 h), 7 µM; in experiment [4] it was 4 µM; in experiment [6], 6 µM. Further, the Ki in experiment [5] worked out at 0.036 µM.

As for `COc1cc(C(=O)C(=O)N2CCCC[C@H]2C(=O)OC(CCCc2ccccc2)CCCc2ccc[n+]([O-])c2)cc(OC)c1OC` (mixture of isomers) [Compound 22, (R and S)-1-Phenyl-7-(3-pyridyl)-4-heptyl (S)-N-(3,4,5-trimethoxyphenylglyoxyl)pipecolate N-oxide], the IC50 in experiment [1] stood at 1.6 µM; in experiment [2] it was 2.5 µM; in experiment [3] it was 1.5 µM; in experiment [4] it was 2.3 µM; in experiment [6] it was 2.2 µM.

Take `COc1cc(C(=O)C(=O)N2CCC[C@H]2C(=O)OC(CCCc2ccccc2)CCCc2ccccn2)cc(OC)c1OC` (stereo partly shown) [Compound 2]: the IC50 in experiment [1] came out at 1.5 µM; in experiment [2], 7 µM; in experiment [3] (3 h), 3.5 µM; in experiment [4] it was 4 µM; in experiment [6], 8 µM. Moreover, in experiment [5], the Ki was determined as 0.095 µM.

As for `COc1cc(C(=O)C(=O)N2CCCC[C@H]2C(=O)OC(CCCc2ccccc2)CCCc2ccccc2)cc(OC)c1OC` [Compound 3, (S)-1,7-Diphenyl-4-heptanyl N-(3,4,5-trimethoxyphenylglyoxyl)pipecolate], the IC50 in experiment [1] was 2.25 µM; in experiment [2] it was 8.5 µM; in experiment [3] (3 h) it was > 8 µM; in experiment [4], 8 µM; in experiment [6] it was 10 µM.

Consider `COc1cc(C(=O)C(=O)N2CCCC[C@H]2C(=O)OC(CCCc2ccccc2)Cc2ccccc2)cc(OC)c1OC` (stereo partly shown) [Compound 10], for which the IC50 was determined as 4 µM in experiment [1]; 8 µM in experiment [2]; 5.5 µM in experiment [3] (3 h); 6 µM in experiment [4]; 5.5 µM in experiment [6]. The Ki in experiment [5] worked out at 0.032 µM.

As to `COc1cc(C(=O)C(=O)N2CCCC[C@H]2C(=O)OC(CCCc2ccccc2)CCc2ccccc2)cc(OC)c1OC` (stereo partly shown) [Compound 12], the IC50 in experiment [1] amounted to 5 µM; in experiment [2], 10 µM; in experiment [3] (3 h), 7 µM; in experiment [4], 8.1 µM; in experiment [6] it was 10 µM. Further, the Ki in experiment [5] was 0.083 µM.

Consider `COc1ccc(CCC(CCCc2ccccc2)OC(=O)[C@@H]2CCCCN2C(=O)C(=O)c2ccccc2)cc1` (stereo partly shown) [Compound 14], for which the IC50 in experiment [1], in experiment [2], in experiment [3] (3 h), in experiment [4] and in experiment [6] was > 10 µM each time. The Ki in experiment [5] was found to be 0.27 µM.

Regarding `COc1cc(C(=O)C(=O)N2CCCC[C@H]2C(=O)OC(CCCc2ccccc2)CCCn2cnc3ccccc32)cc(OC)c1OC` (stereo partly shown) [Compound 15], the IC50 was determined as 3 µM in experiment [1]; 8 µM in experiment [2]; 3 µM in experiment [3]; 5 µM in experiment [4]; 6 µM in experiment [6].

As for `O=C(C(=O)N1CCCC[C@H]1C(=O)OC(CCCc1ccccc1)CCCc1cccnc1)c1ccccc1` (stereo partly shown) [Compound 18], the IC50 in experiment [1] turned out to be 7 µM; in experiment [2], 9 µM; in experiment [3] (3 h), 5 µM; in experiment [4], 7 µM; in experiment [6], 8 µM. Besides, the Ki in experiment [5] came out at 0.056 µM.

Take `O=C(C(=O)N1CCCC[C@H]1C(=O)OC(CCCc1ccccc1)CCCc1ccccn1)c1ccccc1` (stereo partly shown) [Compound 19]: the IC50 in experiment [1] came out at 8 µM; in experiment [2], 10 µM; in experiment [3] (3 h), 6 µM; in experiment [4], 5 µM; in experiment [6] it was 10 µM. Further, in experiment [5], the Ki is 0.05 µM.

Take `COc1cc(C(=O)C(=O)N2CCCC[C@H]2C(=O)OC(CCCc2ccccc2)CCCn2ccc3cccnc32)cc(OC)c1OC` (stereo partly shown) [Compound 23]: the IC50 in experiment [1] was 7 µM; in experiment [2] it was 6 µM; in experiment [3], 5 µM; in experiment [4], 3.5 µM; in experiment [6], 7 µM.

Turning to `O=C(C(=O)N1CCCC[C@H]1C(=O)OC(CCCc1ccccc1)CCCc1cccnc1)c1cccc(OCc2ccccc2)c1` (stereo partly shown) [Compound 27], the IC50 is 4 µM in experiment [1]; 6 µM in experiment [2]; 6 µM in experiment [3] (3 h); 5 µM in experiment [4]; 10 µM in experiment [6]. For the same compound, the Ki in experiment [5] came to 0.015 µM.

`COc1cc(C(=O)C(=O)N2CCCC[C@H]2C(=O)OC(CCCc2ccccc2)c2ccccc2O)cc(OC)c1OC` (stereo partly shown) [Compound 38]: the IC50 in experiment [1] was 5 µM; in experiment [2] it was > 10 µM; in experiment [3], > 10 µM; in experiment [4] it was > 10 µM; in experiment [6] it was > 10 µM.

`COc1cc(C(=O)C(=O)N2CCCC[C@H]2C(=O)OC(CCCc2ccccc2)c2cccnc2)cc(OC)c1OC` (stereo partly shown) [Compound 39]: the IC50 is 5.5 µM in experiment [1], 5 µM in experiment [2], 6 µM in experiment [3] (3 h) and 2.5 µM in experiment [4]. In experiment [5], the Ki worked out at 0.01 µM.
